Measurements taken from ChEMBL document CHEMBL1127569, “Comparison of the conformation of active and nonactive backbone cyclic analogs of substance P as a tool to elucidate features of the bioactive conformation: NMR and molecular dynamics in DMSO and water” (J Med Chem, 1994).
pEC50: −log10 of the molar value. Starred links: 1 amine or outer side, 2 acyl side, 3 side chain; linkers in the order of their positions; H or OH if unused. Positions of bridges follow the written chain, without caps; N, C: chain ends. Non-standard residues stand in square brackets, D forms with d. Residues, ends and D or L forms follow the SMILES beside them. NGly(3-aminopropyl) = O=C(CN(CCCN[*:3])[*:1])[*:2]; N(2-Aminoethyl)Gly = O=C(CN(CCN[*:3])[*:1])[*:2]; Adipoyl = O=C(CCCCC(=O)[*:2])[*:1]; Glutaryl = O=C(CCCC(=O)[*:2])[*:1]; Suc = O=C(CCC(=O)[*:2])[*:1]

Columns and labels:
Neuromedin-K receptor = target: T1, Neuromedin-K receptor (Homo sapiens, UniProt P29371); assay: Tested for the biological activity and selectivity against NK-3 receptor
T1 sequence (P29371 whole entry): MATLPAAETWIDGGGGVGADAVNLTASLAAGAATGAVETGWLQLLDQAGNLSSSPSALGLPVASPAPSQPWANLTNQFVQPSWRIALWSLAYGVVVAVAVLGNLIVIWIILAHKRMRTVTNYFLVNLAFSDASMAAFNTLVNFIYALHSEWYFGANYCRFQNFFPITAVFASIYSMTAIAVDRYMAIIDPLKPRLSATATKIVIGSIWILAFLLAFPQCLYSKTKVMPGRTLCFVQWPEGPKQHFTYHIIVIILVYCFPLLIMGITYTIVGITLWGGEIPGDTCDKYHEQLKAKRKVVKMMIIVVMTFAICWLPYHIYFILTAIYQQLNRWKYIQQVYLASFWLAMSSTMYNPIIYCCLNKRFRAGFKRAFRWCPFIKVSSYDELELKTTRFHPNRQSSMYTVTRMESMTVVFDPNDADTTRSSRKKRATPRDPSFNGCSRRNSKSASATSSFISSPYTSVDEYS

Substance-K receptor = target: T2, Substance-K receptor (Homo sapiens, UniProt P21452); assay: Tested for the biological activity and selectivity against NK-2 receptor
T2 sequence (P21452 whole entry): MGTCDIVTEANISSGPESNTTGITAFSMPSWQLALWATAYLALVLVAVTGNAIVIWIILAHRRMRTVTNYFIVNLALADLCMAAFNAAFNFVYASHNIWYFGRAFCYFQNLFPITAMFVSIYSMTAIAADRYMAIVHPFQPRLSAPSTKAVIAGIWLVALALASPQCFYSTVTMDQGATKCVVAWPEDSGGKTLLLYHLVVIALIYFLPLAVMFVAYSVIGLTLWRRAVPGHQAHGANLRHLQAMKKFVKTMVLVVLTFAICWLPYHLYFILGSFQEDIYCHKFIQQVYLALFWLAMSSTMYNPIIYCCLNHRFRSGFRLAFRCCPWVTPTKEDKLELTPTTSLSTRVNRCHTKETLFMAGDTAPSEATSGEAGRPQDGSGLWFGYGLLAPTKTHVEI

Substance-P receptor = Substance-P receptor (Homo sapiens, UniProt P25103); assay: Tested for the biological activity and selectivity against NK-1 receptor
Chain of Substance-P receptor (P25103 whole entry): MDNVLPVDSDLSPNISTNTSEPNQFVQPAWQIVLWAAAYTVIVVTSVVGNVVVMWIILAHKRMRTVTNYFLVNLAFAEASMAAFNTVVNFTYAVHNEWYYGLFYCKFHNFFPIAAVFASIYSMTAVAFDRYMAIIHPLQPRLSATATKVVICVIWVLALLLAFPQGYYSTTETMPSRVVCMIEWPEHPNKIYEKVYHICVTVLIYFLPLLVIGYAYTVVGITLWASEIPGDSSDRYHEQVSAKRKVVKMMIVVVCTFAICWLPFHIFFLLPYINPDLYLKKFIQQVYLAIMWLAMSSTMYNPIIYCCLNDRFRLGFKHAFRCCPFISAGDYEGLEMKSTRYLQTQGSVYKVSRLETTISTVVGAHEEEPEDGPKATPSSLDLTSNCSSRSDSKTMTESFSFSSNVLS

pEC50 (Neuromedin-K receptor) | pEC50 (Substance-K receptor) | pEC50 (Substance-P receptor) | SMILES
< 5.00 | < 4.30 | < 5.00 | CSCC[C@H](NC(=O)[C@H](CC(C)C)NC(=O)CN1CCNC(=O)CCC(=O)NCC(=O)N[C@@H](CCCN=C(N)N)C(=O)N[C@@H](Cc2ccccc2)C(=O)N[C@@H](Cc2ccccc2)C1=O)C(N)=O (GRFF[N(2-Aminoethyl)Gly]LM-NH2; linker N-5 via Suc)
< 5.00 | < 4.30 | 8.30 | CSCC[C@H](NC(=O)[C@H](CC(C)C)NC(=O)CN1CCCNC(=O)CCCCC(=O)N[C@@H](CCCN=C(N)N)C(=O)N[C@@H](Cc2ccccc2)C(=O)N[C@@H](Cc2ccccc2)C1=O)C(N)=O (RFF[NGly(3-aminopropyl)]LM-NH2; linker N-4 via Adipoyl)
< 5.00 | < 4.30 | 7.96 | CSCC[C@H](NC(=O)[C@H](CC(C)C)NC(=O)CN1CCCNC(=O)CCCC(=O)N[C@@H](CCCN=C(N)N)C(=O)N[C@@H](Cc2ccccc2)C(=O)N[C@@H](Cc2ccccc2)C1=O)C(N)=O (RFF[NGly(3-aminopropyl)]LM-NH2; linker N-4 via Glutaryl)
< 5.00 | < 4.30 | 6.74 | CSCC[C@H](NC(=O)[C@H](CC(C)C)NC(=O)CN1CCCNC(=O)CCC(=O)N[C@@H](CCCN=C(N)N)C(=O)N[C@@H](Cc2ccccc2)C(=O)N[C@@H](Cc2ccccc2)C1=O)C(N)=O (RFF[NGly(3-aminopropyl)]LM-NH2; linker N-4 via Suc)
